Data set [1] concerns leptin secreted from adipocytes. Kind of data set: Leptin secretion (ELISA). The class given is cell-based, mouse. Particulars: 10 μg/mL, FIG. 8. How it is done: 3T3-L1 pre-adipocytes were cultured in Dulbecco's Modified Eagle's Medium (DMEM) containing 10% fetal bovine serum, 100 unit/mL penicillin and 10 μg/mL streptomycin at 37° C., 5% CO2 incubator. When 70 to 80% of cells were confluent, cells were pre-differentiated with DMEM containing dexamethazone, pioglitazone, IBMX (3-isobutyl-1-methylxanthin), insulin and FBS which are differentiation inducers, and then were differentiated with DMEM containing insulin, pioglitazone and FBS. After differentiation, lipids were matured with growth medium containing 10% FBS and insulin. Samples were dissolved in DMSO and treated in 10 μg/mL of the final concentration. An experiment was carried out to check whether the secretion amount of leptin, which is known as an appetite-related hormone, is regulated. The amount of leptin secreted from adipocytes was measured by enzyme-linked immunosorbent assay (ELISA) on media collected after treatment of adipocytes with sample. 100 μl of rabbit anti-mouse leptin IgG was aliquoted into an ELISA plate. […] Color development was elicited by the use of alkaline phosphatase conjugated substrate kit, and then absorbance at 490 nm was measured by an ELISA reader (SUNRISE, TECAN, Austria). […]
For orientation: An ELISA detects its analyte on a solid surface through an enzyme-linked reagent.

Data set [2] deals with 3T3-L1 pre-adipocytes. Kind of data set: Glycerol quantification (free glycerol reagent). The class given is cell-based. Particulars: 10 μg/mL, medium after 24 hours treatment, FIG. 7. How it is done:
(§1) 3T3-L1 pre-adipocytes were cultured in Dulbecco's Modified Eagle's Medium (DMEM) containing 10% fetal bovine serum, 100 unit/mL penicillin and 10 μg/mL streptomycin at 37° C., 5% CO2 incubator. When 70 to 80% of cells were confluent, cells were pre-differentiated with DMEM containing dexamethazone, pioglitazone, IBMX (3-isobutyl-1-methylxanthin), insulin and FBS which are differentiation inducers, and then were differentiated with DMEM containing insulin, pioglitazone and FBS. After differentiation, lipids were matured with growth medium containing 10% FBS and insulin. Samples were dissolved in DMSO and treated in 10 μg/mL of the final concentration.
Glycerol was quantified with an enzyme reaction method by using free glycerol reagent (Sigma, USA). 10 μl of medium, collected after treatment of cells with sample for 24 hours was added to 0.8 mL of Free glycerol reagent which was pre-warmed at 37° C., and then the reaction of the mixture was carried out in 37° C. water bath for 5 minutes. For quantification of glycerol, standard glycerol (25 μg/10 μl) was reacted in the same manner as above, and then absorbance at 540 nm was measured. The content of glycerol was calculated with the following formula.

The test system of data set [3] is 3T3-L1 pre-adipocytes. The class given is cell-based. The conditions noted are these: mouse, 24 h, 10 μg/mL. How it is done: as §1
1×10^4 pre-adipocytes were dispensed into each well of 96-well plate, and each sample was treated. Then cells were incubated at 37° C., 5% CO2 incubator for 24 hours. After 24 hours, MTT (in phosphate buffered saline, final concentration was […]) was treated, and then cells were incubated for 4 hours. Formed formazan crystal was dissolved with DMSO:ethanol (1:1) and absorbance at 540 nm was measured by a microplate reader (SUNRISE, TECAN, Austria). Cell viability was determined by the ratio of absorbance value of sample treating group to absorbance value of control group, and the results are represented in FIG. 3. […] Thus, there is no statistically significant difference from that of the control group.

Data set [4] relates to 3T3-L1 pre-adipocytes. As to the kind of experiment: Lipolysis effect (Oil red O staining, neutral lipids). The class given is cell-based. The conditions noted are these: 10 μg/mL, 8th day after differentiation, vs control group, FIGS. 4 and 5. The procedure:
as §1
1×10^5 cells were dispensed into each well of 6-well plate and differentiated. On the 8th day after differentiation, media were removed, and cells were washed twice with ice-cold PBS. Cells were fixed with 10% formalin at room temperature for 1 hour, stained with 0.2 Oil red O (in isoprophanol) for 30 minutes, and then washed with distilled water. Isopropanol was added thereto to dissolve oil droplets, and then the content of neutral lipids was measured as absorbance at 490 nm. The results are represented in FIGS. 4 and 5.

Data set [5] has as its system 3T3-L1 pre-adipocytes. As to the kind of experiment: Adipogenesis inhibitory effect (Oil red O staining). The class given is cell-based. Particulars: Mus musculus, 10 μg/mL, treated with MDI medium 48 hours, 8th day after differentiation, FIG. 6, read-out: Content of neutral lipids decreased compared with the control group (adipogenesis inhibitory effect). How it is done:
as §1, with “concentration. 1×10^5 cells were dispensed into each well of 6-well plate. When 70% of cells were confluent, cells were treated with MDI medium (differentiation medium) and each sample at the same time, then incubated for 48 hours. On the 8th day after differentiation, the content of neutral lipids was measured with Oil red O staining. The results are represented in FIG. 6.” for “concentration.”

For data set [6], the system named is male Sprague-Dawley rats. As to the kind of experiment: Organ and white adipose tissue weight in rats fed experimental diet. The class given is in vivo. Particulars: HF diet + 2% test material, 5 weeks. An excerpt: (§2) 28 male Sprague-Dawley rats (5 weeks, 145±5 g) were purchased from the Orient Company (Korea) as experimental animals. Rats were adapted with a lab-chow diet in pellet form for a week. Other obesity-induction groups except the normal group (NC) were fed high fat diet ad libitum for 5 weeks to induce obesity, and then rats were divided into four groups (7 rats per group) including the normal group and bred for 5 weeks as represented in FIG. 13.
(§3) AIN-76 diet (Teklad, USA) was used as a base of the experimental diet. Test materials were added at the level of 2% of high fat diet. In the CLA group and N-CLA group, 2% of CLA and N-CLA were added, respectively, while reducing corn oil. Experimental diet and water were supplied ad libitum. During the breeding period, the experimental diets were kept in a 4° C. refrigerator. Each of the animals was placed in an empty cage under a specific environmental condition, at 25±2° C. with a relative humidity of 60±5%, a lighting cycle of 12 hr light/12 hr dark. Body weight and the amount of diet intake were measured at constant time at 2-day intervals during the overall experimental period. Feed efficiency ratio (FER) was calculated by dividing the amount of body weight gain during the experimental period with the amount of diet intake during the same period, and the results are represented in Table 16.
After breeding, rats were fasted for 12 hours and then primarily anesthetized with ether. […] Collected blood was centrifuged at 3,000×g, 4° C. for 15 minutes to obtain serum, and then obtained serum was stored at −70° C. until sample analysis. Organ tissues (liver, heart, kidney, epididymal white adipose tissue and perirenal white adipose tissue) of the experimental animals were washed with PBS (phosphate buffered saline) several times, and then weighed after removing surface moisture. Liver was isolated, collected, rapidly frozen in liquid nitrogen and stored at −70° C. until sample analysis for measurement of enzyme activity and lipid quantification. The results of measuring the weight of epididymal white adipose tissue and perirenal white adipose tissue per unit body weight are represented in FIG. 10.

Data set [7] has as its system male Sprague-Dawley rats. Kind of data set: Body weight, diet intake and FER in high fat diet obesity-induced rats. The class given is in vivo. Particulars: HF diet + 2% test material.
Text: as §2, §3

The test system of data set [8] is male Sprague-Dawley rats. As to the kind of experiment: Liver tissue lipid content in rats fed experimental diet. The class given is in vivo. The conditions noted are these: HF diet + 2% test material, 5 weeks, vs HFD group, FIG. 12.
Text: as §2
as §3, with “During the breeding period, the experimental diets were kept in a 4° C. refrigerator. Each of the animals was placed in an empty cage under a specific environmental condition, at 25±2° C. with a relative humidity of 60±5%, a lighting cycle of 12 hr light/12 hr dark.” left out
(§4) After breeding, rats were fasted for 12 hours and then primarily anesthetized with ether. […] Liver was isolated, collected, rapidly frozen in liquid nitrogen and stored at −70° C. until sample analysis for measurement of enzyme activity and lipid quantification. […]

The subject of data set [9] is male Sprague-Dawley rats. Kind of data set: Serum cholesterol and neutral lipid in rats fed experimental diet. The conditions noted are these: HF diet + 2% test material, 5 weeks, FIG. 11. It is filed as in vivo.
Text: as §2, §3, §4
Quantification of total serum cholesterol was performed by using a test solution (Asanpharm Co., Korea) utilizing Allain et al. (1974)'s enzyme method. […] Thus, to quantify both CE and free cholesterol, CE was converted into fatty acid and free cholesterol by cholesterol esterase. […] H2O2 was mixed with peroxidase, phenol and 4-amino-antipyrine to emit red color, and then absorbance at 500 nm was measured. […]
The content of HDL-cholesterol was measured with kit reagent (Asanpharm Co., Korea). […]

Take `CCCCCCCCCCC[C@@H](C[C@@H]1OC(=O)[C@H]1CCCCCC)OC(=O)[C@H](CC(C)C)NC=O` [Orlistat]: in data set [1], the “Amount of leptin secretion decreased compared with the control group” value is recorded as 11.6%. Besides, the “Content of glycerol (secretion of glycerol, lipolysis)” value with 3T3-L1 pre-adipocytes [2] worked out at 1.57 µg/mL. Further, in the data set with 3T3-L1 pre-adipocytes [3], the Cell viability was 103%. Further, the “Content of neutral lipids (lipolysis effect)” value in the data set with 3T3-L1 pre-adipocytes [4] is reported as “tendency of decreasing neutral lipids”. For the same compound, the inhibition at 10 µg/mL with 3T3-L1 pre-adipocytes [5] is 12.5%.

For conjugated linoleic acid [CLA], in [1], the “Amount of leptin secretion decreased compared with the control group” value was determined as 8.3%. Moreover, the “Content of glycerol (secretion of glycerol, lipolysis)” value in the data set with 3T3-L1 pre-adipocytes [2] is “tendency of increasing the secretion of glycerol”. The “Content of neutral lipids (lipolysis effect)” value in the data set on 3T3-L1 pre-adipocytes [4] is recorded as “tendency of decreasing neutral lipids”. For the same compound, in the data set with male Sprague-Dawley rats [6], the “Organ Weight: Heart” value was determined as 2.43 ± 0.17 mg/g B.W, the “Organ Weight: Kidney” value turned out to be 5.35 ± 0.24 mg/g B.W and the “Organ Weight: Liver” value was found to be 44.69 ± 2.57 mg/g B.W. The “Weight of epididymal white adipose tissue and perirenal white adipose tissue per unit body weight” value with male Sprague-Dawley rats [6] (vs HFD group, FIG. 10) is given as “slightly lighter than in the HFD group without statistical significance”. Further, the “Body weight in the 5th week” value with male Sprague-Dawley rats [7] (5th week, FIG. 9) is “not different from that of the HFD group with statistical significance”. In the data set on male Sprague-Dawley rats [7] (5 weeks), the “Body Weight Gain” value is listed as 2.89 ± 0.55 g/day, the “FER (food efficiency ratio) = body weight gain/food intake” value came out at 0.11 ± 0.02 and the “Food Intake” value turned out to be 28.18 ± 0.21 g/day. Further, the “Body weight change during the experiment period” value with male Sprague-Dawley rats [7] (weeks 2 onward, vs HFD group, FIG. 9) is “lower than in the HFD group from the 2nd week to the 4th week”. Besides, in the data set on male Sprague-Dawley rats [8], the “Content of neutral lipids in liver tissue” value is reported as “statistically significant decrease compared with the HFD group” and the “Content of total cholesterol in liver tissue” value is on record as “statistically significant decrease compared with the HFD group”. In addition, the “Content of serum neutral lipid (triglyceride, TG)” value in the data set with male Sprague-Dawley rats [9] is recorded as “lower than HFD group with statistical significance”. The “Serum total cholesterol (TC)” value in the data set on male Sprague-Dawley rats [9] (vs HFD group) is listed as “decreased compared with the HFD group with statistical significance”. Further, in the data set on male Sprague-Dawley rats [9] (vs HFD group, calculated by Friedewald method), the “Serum low density lipid (LDL)” value was “decreased compared with the HFD group with statistical significance”.

These data come from patent publication US8686039B2, “Aqueous nanoemulsion composition containing conjugated linoleic acid” (Hwail Pharmaceutical Co., Ltd., priority 2009, dated 2014).
